The values that follow come from ChEMBL document CHEMBL3585323, “Effect of intercalator substituent and nucleotide sequence on the stability of DNA- and RNA-naphthalimide complexes” (Bioorg Med Chem, 2015).

Assay [1] concerns Nucleic Acid. As to the kind of experiment: Induction of DNA intercalation using 5'-d(ATATATATATAT)2-3' at 250 uM by UV-vis spectrophotometric analysis. Type of assay: nucleic-acid assay.
The nature of assay [2]: Binding affinity to 5'-d(ATATAGTATATA)-3'/5'-(TATATACTATAT)-3' DNA assessed as change in melting temperature at 1:1 DNA to compound molar ratio by spectrophotometric analysis.
Assay [3] concerns Nucleic Acid. As to the kind of experiment: Induction of DNA intercalation using 5'-d(GCGCGCGC)2-3' at 250 uM by UV-vis spectrophotometric analysis. In kind it is nucleic-acid assay.
Assay [4] is described as follows: Binding affinity to 5'-d(GTCCGCGGAC)2-3' DNA assessed as change in melting temperature at 1:1 DNA to compound molar ratio by spectrophotometric analysis.
The subject of assay [5] is Nucleic Acid. The experiment in a line: Induction of DNA intercalation using 5'-d(GTCCGTCGGAC)-3'/5'-(GTCCGACGGAC)-3' at 250 uM by UV-vis spectrophotometric analysis. Type of assay: nucleic-acid assay.
Assay [6] concerns Nucleic Acid. As to the kind of experiment: Induction of DNA intercalation using 5'-d(GTCCGCGGAC)2-3' at 1:0, 1:0.5, 1:1, 1:1.5, 1:2 DNA to compound molar ratio by CD spectroscopic analysis. Type of assay: nucleic-acid assay.
Assay [7] can be described thus: Binding affinity to 5'-d(ATATATGATATA)-3'/5'-(TATATCATATAT)-3' DNA assessed as change in melting temperature at 1:1 DNA to compound molar ratio by spectrophotometric analysis.
A short description of assay [8]: Binding affinity to 5'-d(GCGCGCGC)2-3' DNA assessed as change in melting temperature at 1:1 DNA to compound molar ratio by spectrophotometric analysis.
Assay [9] concerns Nucleic Acid. The experiment in a line: Induction of DNA intercalation using 5'-r(GUCCGCGGAC)2-3' at 250 uM by UV-vis spectrophotometric analysis. In kind it is nucleic-acid assay.
Assay [10] is described as follows: Binding affinity to 5'-d(GTAATATTAC)2-3' DNA assessed as change in melting temperature at 1:1 DNA to compound molar ratio by spectrophotometric analysis.
Assay [11] is described as follows: Binding affinity to 5'-d(GTCCGTCGGAC)-3'/5'-(GTCCGACGGAC)-3' DNA assessed as change in melting temperature at 1:1 DNA to compound molar ratio by spectrophotometric analysis.
The test system of assay [12] is Nucleic Acid. The experiment in a line: Induction of DNA intercalation using 5'-d(CGATCG)2-3' by NMR analysis. In kind it is nucleic-acid assay.
A short description of assay [13]: Binding affinity to 5'-d(ATATATATATAT)2-3' DNA assessed as change in melting temperature at 1:1 DNA to compound molar ratio by spectrophotometric analysis.
The subject of assay [14] is Nucleic Acid. The experiment in a line: Induction of DNA intercalation using 5'-d(ATATAGTATATA)-3'/5'-(TATATACTATAT)-3' at 250 uM by UV-vis spectrophotometric analysis. In kind it is nucleic-acid assay.
Assay [15] in a line: Binding affinity to 5'-r(GCGCGCGC)2-3' DNA assessed as change in melting temperature at 1:1 DNA to compound molar ratio by spectrophotometric analysis.
Assay [16] concerns Nucleic Acid. The experiment in a line: Induction of DNA intercalation using 5'-d(ATATATGATATA)-3'/5'-(TATATCATATAT)-3' at 250 uM by UV-vis spectrophotometric analysis. Type of assay: nucleic-acid assay.
The test system of assay [17] is Nucleic Acid. The experiment in a line: Induction of DNA intercalation using 5'-r(GCGCGCGC)2-3' at 250 uM by UV-vis spectrophotometric analysis. Type of assay: nucleic-acid assay.
The subject of assay [18] is Nucleic Acid. As to the kind of experiment: Induction of DNA intercalation using 5'-d(GTCCGCGGAC)2-3' at 250 uM by UV-vis spectrophotometric analysis. Type of assay: nucleic-acid assay.
The nature of assay [19]: Binding affinity to 5'-r(GUCCGCGGAC)2-3' DNA assessed as change in melting temperature at 1:1 DNA to compound molar ratio by spectrophotometric analysis.
Assay [20] relates to Nucleic Acid. As to the kind of experiment: Induction of DNA intercalation using 5'-d(GTAATATTAC)2-3' at 250 uM by UV-vis spectrophotometric analysis. Type of assay: nucleic-acid assay.

Activity calls are given as the source filed them. No cut-off for these calls is given here.

In the case of `CN(C)CCN1C(=O)c2cccc3cc([N+](=O)[O-])cc(c23)C1=O`, the result in assay [1], in assay [3], in assay [5], in assay [6], in assay [9] and in assay [12] was Active. For the same compound, the result in assay [14], in assay [16], in assay [17], in assay [18] and in [20] was Active. Moreover, the ΔTm in assay [2] was 11.7 °C; in assay [4] it was 13.3 °C; in assay [7], 17.2 °C; in [8] it was 14.3 °C; in [10] it was 12.6 °C; in assay [11], 5 °C. In addition, the ΔTm in assay [13] is 0 °C; in assay [15], 1.8 °C; in [19], 2.2 °C.
